Here are results for one compound from US5773423A (priority 1994, dated 1998).

The target in this test is T1, rat brain A1 receptors (Rattus norvegicus, UniProt P25099).
T1 construct: in rat brain membranes; from tissue; host or cells: rat brain membranes
T1 sequence (P25099 1-326): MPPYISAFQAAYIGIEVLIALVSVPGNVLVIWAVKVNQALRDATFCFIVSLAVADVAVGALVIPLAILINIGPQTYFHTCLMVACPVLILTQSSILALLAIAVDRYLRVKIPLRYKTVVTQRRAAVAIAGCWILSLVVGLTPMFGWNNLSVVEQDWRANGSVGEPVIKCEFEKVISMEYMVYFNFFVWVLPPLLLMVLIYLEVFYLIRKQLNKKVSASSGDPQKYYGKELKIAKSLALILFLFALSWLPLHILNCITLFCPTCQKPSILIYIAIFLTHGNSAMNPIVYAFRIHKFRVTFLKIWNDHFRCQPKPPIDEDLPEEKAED
Description: Displacement of [125I]APNEA binding in rat brain membranes. The settings on record: read-out: IC50 vs. displacement of specific binding of [125I]APNEA, Ki (A1) column of Table 2, footnote f. (In general: Displacement assays read how much labelled ligand stays bound in the presence of the test substance.)

As usually defined, the IC50 is the concentration that inhibits the measured activity by half. For `Nc1ccc(CCNc2ncnc3c2ncn3[C@@H]2O[C@H](CO)[C@@H](O)[C@H]2O)cc1I` [[^125 I]APNEA, [^125 I]N^6-2-(4-aminophenyl)ethyladenosine], the half-inhibitory concentration (IC50) is 2.1 nM.
